From PubChem BioAssay AID449762 (Southern Research Specialized Biocontainment Screening …, 2010)
Inconclusive results are not listed.

System: M. tuberculosis H37Rv growth inhibition, 7H9 media
Assay: M. tuberculosis growth inhibition, HTS (AID 449762);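 note: bacterial growth assessed after seven days of incubation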
Conditions: for IC90: measured here: IC90 growth inhibition

COc1ccc(C[C@H]2CN3C(=NC[C@H]3Cc3ccccc3)N2CCNC(=O)CCC2CCCCC2)cc1
IC50: 16.8 µM
IC90: 21.3 µM

Cc1nn(-c2ccccc2)c(C)c1/C=N/NC(=O)c1cc(-c2cccc3ccccc23)n[nH]1
IC50: 29 µM
IC90: > 100 µM

Cc1nn(-c2ccccn2)c2c1-c1nc(N3CCOCC3)ncc1CC2
IC50: 12.9 µM
IC90: > 100 µM

N#C/C(=C1\CCCN1)c1nc(-c2ccccc2)cs1
IC90: > 100 µM

CC(C)C1N=C(c2ccc3c(c2)OCO3)CC(c2ccccc2O)N1 (centres undefined)
IC50: 20.8 µM
IC90: 30.4 µM

O=C(CSC(=S)N1CCCC1)c1cc(Br)cc(Br)c1O
IC50: 23.9 µM
IC90: 36.6 µM

Cc1cc(C)cc(-n2c(C)c3c(C)nnc(C)c3c2C)c1
IC50: 62.8 µM
IC90: 78.1 µM

COc1ccc(COC(=O)CCNC(=O)c2ccc(Cl)cc2)cc1
IC50: 58.7 µM
IC90: > 100 µM

COc1ccc(-c2cc(C3CCN(C(=O)OC(C)(C)C)CC3)[nH]n2)cc1
IC50: 17 µM
IC90: 30.6 µM

CSCCC(=O)N1CCCC(CNC(=O)c2ccc(-c3ccccc3)cc2)C1 (centres undefined)
IC50: 39.1 µM
IC90: 87.8 µM

COc1ccc(-c2nnc(SCC(=O)N3CCc4ccccc4C3)o2)cc1
IC50: 17.6 µM
IC90: 29.2 µM

CCCCN(CCCC)CCC(O)c1cc2c(Cl)cc(Cl)cc2c2cc(C(F)(F)F)ccc12 (centres undefined)
IC50: 16.6 µM
IC90: 25.7 µM

CCOc1ccc(NC(=O)CSc2nc(O)c(C)c(=O)n2-c2ccc(F)cc2)cc1
IC50: 8.48 µM
IC90: 20.3 µM

O=C1Nc2ccc(Br)cc2/C1=C/C(=O)c1ccc2c(c1)OCO2
IC50: 7.71 µM
IC90: 18.1 µM

Cc1ccc(Cn2ccsc2=NC(=O)CCl)cc1
IC50: 0.57 µM
IC90: 1.52 µM

CC(C)CCNC(=O)C(c1ccc(O)cc1)N(C(=O)C1COc2ccccc2O1)c1cccc(O)c1 (centres undefined)
IC50: 71 µM
IC90: > 100 µM

COc1ccc2[nH]c3c(C)c4ccncc4c(C)c3c2c1
IC50: 0.89 µM
IC90: 2.68 µM

CCN(Cc1ccccc1)c1ccc(/C=N/N=C(N)N)cc1
IC50: 17.1 µM
IC90: 30.1 µM

CCc1ccc(N=Nc2ccc(O)c3[nH]cnc23)cc1
IC50: 15.4 µM
IC90: > 100 µM

CCc1ccc(/C=C2/C(=O)N(C)C(=S)N2CC(=O)OC)s1
IC50: 1.46 µM
IC90: 5.75 µM

Cc1cc(C)n2nc(/C(C#N)=C/c3ccccn3)c(C#N)c2n1
IC50: 0.97 µM
IC90: 17.6 µM

CCOC(=O)COc1ccc2c(c1)C(=O)CC(C)(c1cccnc1)O2 (centres undefined)
IC50: 9.2 µM
IC90: 18.4 µM

C=CCOC(=O)COc1ccc2c(C)c(CC)c(=O)oc2c1
IC50: 1.08 µM
IC90: 2.21 µM

O=[N+]([O-])c1ccc(C2Oc3ccccc3C3CC(c4ccccc4)=NN32)s1 (centres undefined)
IC50: 6.12 µM
IC90: 6.95 µM

ClCc1nc2ccccc2c2ccccc12
IC50: 6.3 µM
IC90: 17.2 µM

Cc1onc(-c2ccccc2Cl)c1C(=O)Oc1cccc2cccnc12
IC50: 2.84 µM
IC90: 4.24 µM

N#Cc1c([N+](=O)[O-])cc([N+](=O)[O-])cc1S(=O)(=O)Cc1ccccc1
IC50: 15.3 µM
IC90: 22.6 µM

Cc1cc(N/N=C/c2ccccc2[N+](=O)[O-])nc(-n2nc(C)cc2C)n1
IC50: 0.92 µM
IC90: 4.72 µM

Cc1ccc(-n2cc(CNCCn3nc(C)cc3C)c(-c3ccc(F)cc3)n2)cc1
IC50: 3.48 µM
IC90: 9.36 µM

Cc1ccc2cc(C)c(N3CCN(c4ccccn4)CC3)nc2c1
IC50: 29.7 µM
IC90: 46.3 µM

Cc1ccc2nc(=O)c(NNc3ccccc3)cnc2c1
IC50: 16.5 µM
IC90: > 100 µM

Nc1c(C(=O)NC2CCCCC2)nsc1C(=O)OCC(=O)NC1CCCCC1
IC50: 1.87 µM
IC90: 6.02 µM

O=C(COC(=O)C1CC2CCCC(C1)C2=O)NNC(=O)c1ccccc1F (centres undefined)
IC50: 9.47 µM
IC90: > 100 µM

Oc1ccc2ccccc2c1C1Nc2cccc3cccc(c23)N1
IC50: 75 µM
IC90: > 100 µM

COc1ccccc1C1c2ccc3ccccc3c2Oc2ncn(CCN(C)C)c(=N)c21 (centres undefined)
IC50: 22.3 µM
IC90: 24.9 µM

Cc1cc2c(ccc3c2no[n+]3[O-])nn1
IC50: 11.6 µM
IC90: 14.6 µM

CCCCn1nc(C(=O)Nc2ccccc2N2CCCC2)c2ccccc2c1=O
IC50: 11.8 µM
IC90: > 100 µM

CC(C)(Oc1ccc(Cl)cc1)C(=O)OCC(=O)N1CCN(c2ccccc2)CC1
IC50: 30.5 µM
IC90: 98.2 µM

Cc1ccc(S(=O)(=O)NNC(=O)c2cc([N+](=O)[O-])c(C)c([N+](=O)[O-])c2)cc1
IC50: 7.57 µM
IC90: 12.5 µM

CC(C)(O)[C@H]1O[C@H]2CC[C@@]3(C)[C@@](O)(CC[C@H]4Cc5c([nH]c6ccccc56)[C@@]43C)C2=CC1=O
IC50: 42.2 µM
IC90: 63.9 µM

O=C(OCc1csc(Nc2ccccc2)n1)c1ccc(Cl)cc1
IC50: 17.1 µM
IC90: 45.7 µM

CCn1c(NC(=O)c2nn(C)cc2Br)nc2ccccc21
IC50: 4.39 µM
IC90: 12.7 µM

Cc1cncn1CCc1nc2c3ccccc3nc(SCC(=O)Nc3cccc(Cl)c3)n2n1
IC50: 20.9 µM
IC90: 27.9 µM

COC(=O)c1ccc(COC(=O)CCc2nc(-c3ccccc3)c(-c3ccccc3)o2)cc1
IC50: 21.5 µM
IC90: > 100 µM

Cc1ccc2c(c1)c(C1=c3ccccc3=NC1=O)c(O)n2C
IC50: 1.17 µM
IC90: 3.07 µM

Cc1cc(C)n(-c2ccc(C(=O)Oc3ccc4c(c3)OCO4)cc2)n1
IC50: 4.02 µM
IC90: 13.3 µM

COc1ccc(C2=NN(C(=O)COC(=O)c3ccc(S(C)(=O)=O)c([N+](=O)[O-])c3)C(c3ccco3)C2)cc1 (centres undefined)
IC50: 6.58 µM
IC90: 14.9 µM

COC(=O)C(CCSC)NC(=O)c1cn(-c2ccc(OC)cc2)c(=O)c2ccccc12 (centres undefined)
IC50: 12 µM
IC90: > 100 µM

CC(Oc1ccc(F)cc1)C(=O)Nc1sc2c(c1C(=O)NCc1cccnc1)CCCC2 (centres undefined)
IC50: 45 µM
IC90: 52.5 µM

Cc1nc2ccccc2c2nc3ccccc3n12
IC50: 33.8 µM
IC90: 55.2 µM

COc1cc(/C=C/c2cc[n+](C)cc2)ccc1OCC(=O)Nc1ccc(Cl)c(Cl)c1
IC50: 21.7 µM
IC90: 23.5 µM

CCCCCc1ccc(-c2cn(Cc3cccc(OC)c3)nn2)cc1
IC50: 20.7 µM
IC90: 50 µM

OCCCNc1cc(-c2ccnc(Nc3cccc(Cl)c3)n2)ccn1
IC50: 20.8 µM
IC90: 45 µM

Cc1ccc(C(=O)ONc2ccc(N=O)cc2)cc1
IC50: 23.2 µM
IC90: 43.1 µM

CCc1ccc(-c2cc(C)no2)cc1S(=O)(=O)NCCCN1CCN(c2ccccc2)CC1
IC50: 34.7 µM
IC90: 44.7 µM

O=C(c1cc2cc(Cl)ccc2[nH]1)N1CCN(Cc2ccc3c(c2)OCO3)CC1
IC90: > 100 µM

N=c1n(Cc2ccc(Cl)cc2)c2ccccc2n1CC(O)COc1ccccc1 (centres undefined)
IC50: 17.5 µM
IC90: 25.5 µM

Nc1ccc(Oc2ccc(F)cc2)nc1
IC50: 60.6 µM
IC90: 90.1 µM

COC(=O)[C@@H](NC(=O)O[C@@H]1C(=O)c2ccc(OC)cc2O[C@H]1c1cccc(C(F)(F)F)c1)C(C)C
IC50: 56.2 µM
IC90: > 100 µM

O=C(Nc1cc(C(F)(F)F)ccc1Cl)C(Sc1cccc[n+]1[O-])c1ccccc1 (centres undefined)
IC50: 39.2 µM
IC90: 47.9 µM

O=c1cc(/C=C/c2ccccc2)oc2ccccc12
IC50: 36.4 µM
IC90: > 100 µM

COc1cccc2sc3ccc(C#CC4(N)CCCCC4)cc3c(=O)c12
IC50: 61.6 µM
IC90: 82.2 µM

COc1ccc(-c2cc3ccccc3oc2=O)cc1NC(=O)c1ccc([N+](=O)[O-])o1
IC50: 0.37 µM
IC90: > 100 µM
